pIC50: −log10 of the molar value.

Common to all, as to assay type: biochemical
The target in one experiment is T1, MMP-13 (Homo sapiens, UniProt P45452).
T1 construct: catalytic domain (^104Tyr˜^267Gly) was amplified with RT-PCR; His-tag; enterokinase digestion-site
Put plainly: Assay for inhibitory activities on MMPs (fluorogenic peptide substrate), MMP-13. On the procedure: In regard to MMP-13, mRNA was prepared from carcinoma cell SW1353 derived from human cartilage stimulate by IL-1 and TNF, and catalytic domain (^[…]) was amplified with RT-PCR. This was cloned in Escherichia coli expression vector […] inserted with His-tag sequence and enterokinase digestion-site, induced and expressed by IPTG (Isopropyl-β-D-thiogalactopyranoside) and expressed in an insoluble fraction. Isolation of MMP-13 from an insoluble fraction was carried out by dissolving in modifier (6 M urea) by a usual method and purification with metal chelate chromatography (Ni […] Sepharose). And then removing modifier (6 M urea) with dialyze and refolding of the enzyme spontaneously gave activated MMP-13. The enzymatic activity on MMPs was analyzed by the method described in “C. Graham Knight, Frances Willenbrock and Gillian Murphy: A novel coumarin-labelled peptide for sensitive continuous assays of the matrix metalloproteinases: FEBS LETT., 296, (1992), 263-266”. The substrate: MOCAc-[…] was purchased from Peptide Institute, Inc., Osaka, Japan. The measurement of the inhibitory activities (IC50) was carried out by the following four methods; (A) Reaction with substrate, enzyme (MMPs) and inhibitor (B) Reaction with substrate and inhibitor, without enzyme (C) Reaction with substrate and enzyme (MMPs), without inhibitor (D) Reaction with substrate only IC50 values were calculated by using the following formula and each fluorescence values of above four methods (A to D). % inhibition={1-(A-B)/(C-D)}×100 IC50 means the concentration required to inhibit 50% of the enzyme activity. The value of inhibitory activity against MMP-2, MMP-8, MMP-9, MMP-12, and MMP-13 measured by above mentioned methods are shown in Table 25 and 26.

For the next experiment, the target named is T2, MMP-2 (Homo sapiens, UniProt P08253).
T2 sequence (P08253 110-660): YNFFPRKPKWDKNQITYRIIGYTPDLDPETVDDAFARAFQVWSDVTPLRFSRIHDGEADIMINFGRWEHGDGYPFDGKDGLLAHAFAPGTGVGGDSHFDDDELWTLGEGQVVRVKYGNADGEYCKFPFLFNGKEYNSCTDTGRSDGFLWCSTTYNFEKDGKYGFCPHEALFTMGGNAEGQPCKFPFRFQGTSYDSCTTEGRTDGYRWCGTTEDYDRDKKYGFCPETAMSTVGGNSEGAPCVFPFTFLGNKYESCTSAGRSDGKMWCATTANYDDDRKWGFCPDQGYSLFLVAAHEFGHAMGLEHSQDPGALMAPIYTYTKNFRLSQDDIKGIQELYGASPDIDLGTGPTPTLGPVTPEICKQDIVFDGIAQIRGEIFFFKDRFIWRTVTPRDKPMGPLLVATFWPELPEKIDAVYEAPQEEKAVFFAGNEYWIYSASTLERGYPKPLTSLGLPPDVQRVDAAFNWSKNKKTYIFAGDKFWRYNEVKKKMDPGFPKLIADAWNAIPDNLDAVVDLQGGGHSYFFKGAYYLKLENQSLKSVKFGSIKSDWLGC
Nature of the experiment: Assay for inhibitory activities on MMPs (fluorogenic peptide substrate), MMP-2. On the procedure: MMP-2 was purchased from Calbiochem-Novabiochem International, Inc.
(§1) The enzymatic activity on MMPs was analyzed by the method described in “C. Graham Knight, Frances Willenbrock and Gillian Murphy: A novel coumarin-labelled peptide for sensitive continuous assays of the matrix metalloproteinases: FEBS LETT., 296, (1992), 263-266”. The substrate: MOCAc-Pro-Leu-Gly-Leu-A2Pr(DNP)-Ala-Arg-NH2 was purchased from Peptide Institute, Inc., Osaka, Japan. The measurement of the inhibitory activities (IC50) was carried out by the following four methods;
(§2) (A) Reaction with substrate, enzyme (MMPs) and inhibitor
(§3) (B) Reaction with substrate and inhibitor, without enzyme
(§4) (C) Reaction with substrate and enzyme (MMPs), without inhibitor
(§5) (D) Reaction with substrate only
(§6) IC50 values were calculated by using the following formula and each fluorescence values of above four methods (A to D).
(§7) % inhibition={1-(A−B)/(C−D)}×100
(§8) IC50 means the concentration required to inhibit 50% of the enzyme activity.
(§9) The value of inhibitory activity against MMP-2, MMP-8, MMP-9, MMP-12, and MMP-13 measured by above mentioned methods are shown in Table 25 and 26.

The next experiment concerns the target T3, MMP-8 (Homo sapiens, UniProt P22894).
T3 construct: In regard to MMP-8, catalytic domain (^99Phe˜^262Gly) was amplified with PCR; His-tag; enterokinase digestion-site
Nature of the experiment: Assay for inhibitory activities on MMPs (fluorogenic peptide substrate), MMP-8.
Text: In regard to MMP-8, catalytic domain (^99Phe˜^262Gly) was amplified with PCR using commercial available Human Bone Marrow cDNA. This was cloned in Escherichia coli expression vector pTrc99AHE inserted with His-tag sequence and enterokinase digestion-site, induced and expressed by IPTG (Isopropyl-β-D-thiogalactopyranoside) and expressed in a insoluble fraction (Than F. Ho, M. Walid Qoronfleh, Robert C. Wahl, Trica A. Pulvino, Karen J. Vavra, Joe Falvo, Tracey M. Banks, Patricia G. Brake and Richard B. Ciccarelli: Gene expression, purification and characterization of recombinant human neutrophil collagenase. Gene 146, (1994) 297-301. It was prepared by the method in a slight modification). Isolation of MMP-8 from an insoluble fraction was carried out by dissolving in modifier (6 M urea) by a usual method and purification with metal chelate chromatography. And then removing modifier (6 M urea) with dialysis and refolding of the enzyme spontaneously gave activated MMP-8.
as §1, §2, §3, §4, §5, §6, §7, §8, §9

In the next experiment the target is MMP-9 (Homo sapiens, UniProt P14780). Put plainly: Assay for inhibitory activities on MMPs (fluorogenic peptide substrate), MMP-9.
Sequence of MMP-9 (P14780 107-707): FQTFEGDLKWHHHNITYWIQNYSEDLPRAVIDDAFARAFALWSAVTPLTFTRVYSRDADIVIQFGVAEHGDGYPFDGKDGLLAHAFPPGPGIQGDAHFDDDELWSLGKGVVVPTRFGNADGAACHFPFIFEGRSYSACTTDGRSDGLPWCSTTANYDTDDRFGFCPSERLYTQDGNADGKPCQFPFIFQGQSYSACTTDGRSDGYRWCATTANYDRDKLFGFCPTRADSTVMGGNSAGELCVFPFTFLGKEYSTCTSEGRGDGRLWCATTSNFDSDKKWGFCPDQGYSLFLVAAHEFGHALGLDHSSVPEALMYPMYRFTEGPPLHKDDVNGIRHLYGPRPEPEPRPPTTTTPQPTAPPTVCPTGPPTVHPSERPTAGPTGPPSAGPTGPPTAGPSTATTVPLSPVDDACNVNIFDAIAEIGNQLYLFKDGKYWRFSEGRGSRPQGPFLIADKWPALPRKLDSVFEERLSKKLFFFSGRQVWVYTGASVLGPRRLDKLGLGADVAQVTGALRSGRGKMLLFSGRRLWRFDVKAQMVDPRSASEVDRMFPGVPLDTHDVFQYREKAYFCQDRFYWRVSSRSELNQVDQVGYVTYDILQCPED
Text: MMP-9 was isolated and purified by the procedure of Y. Okada et al. (Yasunori Okada, Yukio Gonoji, Katsumi Naka, Katsuro Tomita, Isao Nakanishi, Kazushi Iwata, Kyoko Yamashita, and Taro Hayakawa: Matrix metalloproteinase 9 (92-kDa gelatinase/type IV collagenase) from HT1080 human fibrosarcoma cells. Purification and activation of the precursor and enzymic properties, J. Biol. Chem., 1992, 267, 21712-21719) in combination with other following methods: 1) Yasunori Okada, Tatsuhisa Morodomi, Jan J, Enghild, Ko Suzuki, Atsushi Yasui, Isao Nakanishi, Guy Salvesen and Hideaki Nagase: Matrix metalloproteinase 2 from human rheumatoid synovial fibroblasts. Purification and activation of the precursor and enzymic properties, Eur. J. Biochem., 1990, 194, 721-730; 2) Robin V Ward, Rosalind M Hembry, John J Reynolds and Gillian Murphy: The purification of tissue inhibitor of metalloproteinase-2 from its 72 kDa progelatinase complex. Biochem. J., 1991, 278, 179-187. In detail, human fibrosarcoma ATCC HT1080 cell line was cultured to confluent in Dulbecco's Modified Medium (DMEM) containing 10% fetal-calf serum at 37° C. for 48 hours. Subsequently, the medium of confluent culture was changed to serum-free DMEM medium. To obtain MMP-9, phorbol-12-myristate-13-acetate (TPA) must be added to this serum-free DMEM medium at a concentration of 50 ng/ml. The TPA-treated medium was centrifuged at 3000 rpm for 15 min, and the supernatant was concentrated to 450 ml by a Toyo-Roshi UP-20 apparatus with an ultrafiltration membrane. Then, proMMP-9 in this concentrated solution was purified by using columns of Gelatin-Sepharose and Concanavalin A-Sepharose. The pool containing proMMP-9 was dialyzed, concentrated (Toyo-Roshi UP-20) and applied to columns of Sephacryl S-200 and Green A matrix for the separation from TIMPs. The obtained proMMP-9 fraction was activated by TPCK-Trypsin (Final conc.: 3 μg/501 React Mix.).
as §1, §2, §3, §4, §5, §6, §7, §8, §9

The target of a further experiment is T4, MMP-12 (Homo sapiens, UniProt P39900).
T4 construct: In regard to MMP-12, catalytic domain (^100Phe˜^263Gly) was amplified with RT-PCR; His-tag; enterokinase digestion-site
T4 sequence (P39900 100-263): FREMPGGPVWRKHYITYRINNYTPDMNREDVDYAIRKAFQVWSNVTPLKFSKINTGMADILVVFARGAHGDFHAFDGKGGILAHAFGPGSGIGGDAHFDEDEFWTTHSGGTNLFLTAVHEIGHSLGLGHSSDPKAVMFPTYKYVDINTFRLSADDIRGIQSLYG
Put plainly: Assay for inhibitory activities on MMPs (fluorogenic peptide substrate), MMP-12. On the procedure:
In regard to MMP-12, catalytic domain (^100Phe˜^263Gly) was amplified with RT-PCR from Human Placenta Total RNA. This was cloned in Escherichia coli expression vector pTrc99AHE inserted with His-tag sequence and enterokinase digestion-site, induced and expressed by IPTG (Isopropyl-β-D-thiogalactopyranoside) and expressed in an insoluble fraction. Isolation of MMP-12 from an insoluble fraction was carried out by dissolving in modifier (6 M urea) by a usual method and purification with metal chelate chromatography (Ni Chelateing Sepharose). And then removing modifier (6 M urea) with dialysis and refolding of the enzyme spontaneously gave activated MMP-12.
as §1, §2, §3, §4, §5, §6, §7, §8, §9

T3 sequence (P22894 99-262): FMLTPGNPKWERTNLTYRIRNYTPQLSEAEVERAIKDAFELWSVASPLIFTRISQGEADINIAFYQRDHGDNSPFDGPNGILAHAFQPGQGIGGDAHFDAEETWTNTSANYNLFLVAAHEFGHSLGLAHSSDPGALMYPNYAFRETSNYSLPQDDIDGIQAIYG

Regarding `CSCC[C@H](NS(=O)(=O)c1ccc(-c2ccc(C#Cc3ccc4ccccc4c3)cc2)cc1)C(=O)O` [III-10], the pIC50 was 8.54 against MMP-13; 6.43 against MMP-2; 7.59 against MMP-8; less than 5.00 at MMP-9; 7.53 on MMP-12.
The like results for `O=C(O)[C@H](Cc1ccccc1)NS(=O)(=O)c1ccc(-c2ccc(C#Cc3ccc4ccccc4c3)cc2)cc1` [III-12] were, in that order, 7.45, 5.05, 6.57, less than 5.00 and 6.05.
The like results for `O=C(O)[C@@H](CC1CCCCC1)NS(=O)(=O)c1ccc(-c2ccc(C#Cc3ccc4ccccc4c3)cc2)cc1` [III-15] were, in that order, 6.65, less than 5.00, 5.11, less than 5.00 and less than 5.00.
The like results for `COc1ccc2cc(C#Cc3ccc(-c4ccc(S(=O)(=O)N[C@H](C)C(=O)O)cc4)cc3)ccc2c1` [III-17] were, in that order, 8.25, less than 5.00, less than 5.00, less than 5.00 and less than 5.00.
With `COc1ccc2cc(C#Cc3ccc(-c4ccc(S(=O)(=O)N[C@@H](C)C(=O)O)cc4)cc3)ccc2c1` [III-18], the pIC50 was 7.70 on MMP-13; less than 5.00 against MMP-2; less than 5.00 on MMP-8; less than 5.00 at MMP-9; less than 5.00 at MMP-12.
Turning to `COc1ccc2cc(C#Cc3ccc(-c4ccc(S(=O)(=O)N[C@@H](C(=O)O)C(C)C)cc4)cc3)ccc2c1` [III-20], the pIC50 was 7.82 on MMP-13; 6.78 at MMP-2; 6.81 against MMP-8; less than 5.00 on MMP-9; 6.89 on MMP-12.
Turning to `COc1ccc2cc(C#Cc3ccc(-c4ccc(S(=O)(=O)N[C@H](C(=O)O)C(C)C)cc4)cc3)ccc2c1` [III-21], the pIC50 is 8.24 against MMP-13; less than 5.40 against MMP-2; 7.43 against MMP-8; less than 5.00 at MMP-9; 7.23 against MMP-12.
Regarding `COc1ccc2cc(C#Cc3ccc(-c4ccc(S(=O)(=O)N[C@H](CC(C)C)C(=O)O)cc4)cc3)ccc2c1` [III-22], the pIC50 on MMP-13 is 7.25; against MMP-2 it was less than 5.00; against MMP-8, 5.24; on MMP-9, less than 5.00; on MMP-12, 5.01.
`CCC(C)[C@H](NS(=O)(=O)c1ccc(-c2ccc(C#Cc3ccc4cc(OC)ccc4c3)cc2)cc1)C(=O)O` (stereo partly shown) [III-23]: the negative logarithm of the IC50 (pIC50) on MMP-13 is 7.79; against MMP-2 it was 6.22; at MMP-8, 7.38; on MMP-9 it was less than 5.00; at MMP-12, 7.29.
Take `COc1ccc2cc(C#Cc3ccc(-c4ccc(S(=O)(=O)N[C@H](CCSC)C(=O)O)cc4)cc3)ccc2c1` [III-24]: the pIC50 against MMP-13 was 8.20; on MMP-2 it was 6.62; on MMP-8, 6.72; on MMP-9, less than 5.00; against MMP-12, 6.84.
Turning to `COc1ccc2cc(C#Cc3ccc(-c4ccc(S(=O)(=O)N[C@@H](CCSC)C(=O)O)cc4)cc3)ccc2c1` [III-25], the pIC50 was 7.62 on MMP-13; 5.54 against MMP-2; 7.05 against MMP-8; less than 5.00 at MMP-9; 6.93 on MMP-12.
The like results for `COc1ccc2cc(C#Cc3ccc(-c4ccc(S(=O)(=O)N[C@H](CC(=O)O)C(=O)O)cc4)cc3)ccc2c1` [III-26] were, in that order, 8.41, 5.27, 6.28, less than 5.00 and less than 5.00.
With `COc1ccc2cc(C#Cc3ccc(-c4ccc(S(=O)(=O)N[C@H](CCC(=O)O)C(=O)O)cc4)cc3)ccc2c1` [III-27], the pIC50 against MMP-13 was 8.57; against MMP-2, 7.23; on MMP-8 it was 7.48; on MMP-9, less than 5.00; at MMP-12 it was 7.43.
`COc1ccc2cc(C#Cc3ccc(-c4ccc(S(=O)(=O)N[C@H](Cc5ccccc5)C(=O)O)cc4)cc3)ccc2c1` [III-28]: the pIC50 against MMP-13 is 7.80; against MMP-2, less than 5.30; on MMP-8 it was less than 5.30; on MMP-9 it was less than 5.30; against MMP-12, 5.66.

The term pIC50 denotes the negative decadic logarithm of the IC50, by convention in mol/L.

The record behind these values is patent publication US20080119513A1, “Sulfonamide Derivative Selectively Inhibiting Mmp-13” (priority 2004, published 2008).
